Test results reported in patent US20230072421A1, “TARGETED RADIOPHARMACEUTICALS FOR THE DIAGNOSIS AND TREATMENT OF PROSTATE CANCER” (Bayer AS, priority 2019, published 2023).

Molecular target: T1, PSMA-expressing LNCaP cells (Homo sapiens, UniProt Q04609)
T1 construct: PSMA-expressing LNCaP cells; endogenous in cells; host or cells: LNCaP
Experiment: Binding competition assay against 3H-PSMA-617 on LNCaP cells
Method: Cells were incubated at 37° C. and 5% CO2 over night. […] After addition of the compounds in growth media the cells were swiveled slightly on a shaker mixing for 10 min followed by incubation for 2 h at 37° C., 5% C02. Following the incubation time the supernatant was removed by pipetting and cells were washed twice with ice cold PBS (total of 800 μl). Cells were lysed in 500 μl of 0.3M NaOH (PanReac AppliChem ITW Reagents) by vigorous shaking for 15 min and the cell lysated pipetted into scintillator tubes (S207-[…]® Scintillation Vials 6.5 ml #S207, Simport). In the following the wells were washed with 500 μl PBS and the washing PBS added to the corresponding samples in the sincitallator tubes. To each sample in the scintillator tubes 4 mL of Ultima Gold liquid scintillation cocktail (Sigma-Aldrich #L8286) was added and the samples let stand for at least 30 min. Thereafter radioactivity was counted in a Tri-Carb Liquid Scinzillation Analyzer (Perkin Elmer).

[1] = LNCaP cells, 10 nM 3H-PSMA-617, competing non-radiolabeled compound 10 nM, 2 h at 37° C., triplicates
[2] = LNCaP cells, 10 nM 3H-PSMA-617, competing non-radiolabeled compound 100 nM, 2 h at 37° C., triplicates

T1 sequence (Q04609 whole entry): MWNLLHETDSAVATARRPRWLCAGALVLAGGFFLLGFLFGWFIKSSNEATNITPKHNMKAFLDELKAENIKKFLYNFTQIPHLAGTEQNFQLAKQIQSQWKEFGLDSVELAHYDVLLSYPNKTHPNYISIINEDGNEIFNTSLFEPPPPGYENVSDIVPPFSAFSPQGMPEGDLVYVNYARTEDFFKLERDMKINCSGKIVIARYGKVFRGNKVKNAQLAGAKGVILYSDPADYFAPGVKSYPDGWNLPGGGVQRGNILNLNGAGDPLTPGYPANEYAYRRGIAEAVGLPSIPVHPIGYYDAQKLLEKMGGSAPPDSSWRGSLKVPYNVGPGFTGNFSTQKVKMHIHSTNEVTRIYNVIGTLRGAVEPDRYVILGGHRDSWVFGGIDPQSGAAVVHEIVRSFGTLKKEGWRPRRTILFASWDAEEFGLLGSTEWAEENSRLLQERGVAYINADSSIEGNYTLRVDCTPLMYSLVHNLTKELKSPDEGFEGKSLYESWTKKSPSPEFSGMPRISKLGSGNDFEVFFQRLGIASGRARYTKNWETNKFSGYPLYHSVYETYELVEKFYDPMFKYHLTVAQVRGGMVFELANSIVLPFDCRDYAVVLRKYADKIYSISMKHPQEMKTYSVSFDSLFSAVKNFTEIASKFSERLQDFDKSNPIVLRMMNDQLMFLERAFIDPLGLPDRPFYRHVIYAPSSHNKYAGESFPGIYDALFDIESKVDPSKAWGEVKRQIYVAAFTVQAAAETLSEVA

SMILES | remaining activity at 0.01 µM [1] [%] | remaining activity at 0.1 µM [2] [%] | competition against 3H-PSMA-617 on PSMA-expressing LNCaP cells (in words) (comparison between examples) | % remaining 3H-PSMA-617 @ 10 nM (mean) [1] [%] | % remaining 3H-PSMA-617 @ 100 nM (mean) [2] [%]
CC(=O)NCCCC[C@H](NC(=O)[C@H]1CC[C@H](CN)CC1)C(=O)NCCCC[C@H](NC(=O)N[C@@H](CCC(=O)O)C(=O)O)C(=O)O [Example 11-A, N^6—{N^6-acetyl-N^2-[(1r,4S)-4-(aminomethyl)cyclohexane-1-carbonyl]-L-lysyl}-N^2-{[(1S)-1,3-dicarboxypropyl]carbamoyl}-L-lysine] | 117 | 146 | – | – | –
NC[C@H]1CC[C@H](C(=O)N[C@@H](Cc2ccc(-c3ccccc3)cc2)C(=O)NCCCC[C@H](NC(=O)N[C@@H](CCC(=O)O)C(=O)O)C(=O)O)CC1 [Example 11a-A, (3S,10S,14S)-1-[(1r,4S)-4-(aminomethyl)cyclohexyl]-3-[([1,1′-biphenyl]-4-yl)methyl]-1,4,12-trioxo-2,5,11,13-tetraazahexadecane-10,14,16-tricarboxylic acid] | 110 | 103 | – | – | –
Cc1ccccc1C[C@H](NC(=O)[C@H]1CC[C@H](CN)CC1)C(=O)NCCCC[C@H](NC(=O)N[C@@H](CCC(=O)O)C(=O)O)C(=O)O [Example 12-A, N^6—{N-[(1r,4S)-4-(aminomethyl)cyclohexane-1-carbonyl]-2-methyl-L-phenylalanyl}-N^2-{[(1S)-1,3-dicarboxypropyl]carbamoyl}-L-lysine] | 158 | 128 | – | – | –
Cc1ccc(C[C@H](NC(=O)[C@H]2CC[C@H](CN)CC2)C(=O)NCCCC[C@H](NC(=O)N[C@@H](CCC(=O)O)C(=O)O)C(=O)O)cc1 [Example 13-A, N^6—{N-[(1r,4S)-4-(aminomethyl)cyclohexane-1-carbonyl]-4-methyl-L-phenylalanyl}-N^2-{[(1S)-1,3-dicarboxypropyl]carbamoyl}-L-lysine] | 108 | 124 | – | – | –
NC[C@H]1CC[C@H](C(=O)N[C@@H](Cc2ccc3ccccc3c2Br)C(=O)NCCCC[C@H](NC(=O)N[C@@H](CCC(=O)O)C(=O)O)C(=O)O)CC1 [Example 14-A, (3S,10S,14S)-1-[(1r,4S)-4-(aminomethyl)cyclohexyl]-3-[(1-bromonaphthalen-2-yl)methyl]-1,4,12-trioxo-2,5,11,13-tetraazahexadecane-10,14,16-tricarboxylic acid] | 187 | 129 | – | – | –
NC[C@H]1CC[C@H](C(=O)N[C@@H](Cc2ccc(O)cc2)C(=O)NCCCC[C@H](NC(=O)N[C@@H](CCC(=O)O)C(=O)O)C(=O)O)CC1 [Example 15-A, N^6—{N-[(1r,4S)-4-(aminomethyl)cyclohexane-1-carbonyl]-L-tyrosyl}-N^2-{[(1S)-1,3-dicarboxypropyl]carbamoyl}-L-lysine] | 133 | 111 | – | – | –
NC[C@H]1CC[C@H](C(=O)N[C@@H](Cc2cccc(S(F)(F)(F)(F)F)c2)C(=O)NCCCC[C@H](NC(=O)N[C@@H](CCC(=O)O)C(=O)O)C(=O)O)CC1 [Example 16-A, N^6—{N-[(1r,4S)-4-(aminomethyl)cyclohexane-1-carbonyl]-3-(pentafluoro-lambda^6-sulfanyl)-L-phenylalanyl}-N^2-{[(1S)-1,3-dicarboxypropyl]carbamoyl}-L-lysine] | 79 | 90 | – | – | –
NC[C@H]1CC[C@H](C(=O)N[C@@H](Cc2ccc3ccccc3n2)C(=O)NCCCC[C@H](NC(=O)N[C@@H](CCC(=O)O)C(=O)O)C(=O)O)CC1 [Example 17-A, N^6—{N-[(1r,4S)-4-(aminomethyl)cyclohexane-1-carbonyl]-3-(quinolin-2-yl)-L-alanyl}-N^2-{[(1S)-1,3-dicarboxypropyl]carbamoyl}-L-lysine] | 84 | 56 | – | – | –
O=C(O)CC[C@H](NC(=O)N[C@@H](CCCCNC(=O)[C@H](Cc1ccc2ccccc2n1)NC(=O)[C@H]1CC[C@H](CNC(=O)CN2CCN(CC(=O)O)CCN(CC(=O)O)CCN(CC(=O)O)CC2)CC1)C(=O)O)C(=O)O [Example 17-B, N^6-{3-(quinolin-2-yl)-N-[(1r,4S)-4-({2-[4,7,10-tris(carboxymethyl)-1,4,7,10-tetraazacyclododecan-1-yl]acetamido}methyl)cyclohexane-1-carbonyl]-L-alanyl}-N^2-{[(1S)-1,3-dicarboxypropyl]carbamoyl}-L-lysine] | 55 | 12 | best competition amongst all quinoline isomer examples | – | –
O=C(O)CC[C@H](NC(=O)N[C@@H](CCCCNC(=O)[C@H](Cc1ccc2ccccc2n1)NC(=O)C1CCC(CNC(=O)C[N+]23CC[N+]45CCN6CC[N+]7(CC2)CC(=O)[OH+][Th]347([O]C(=O)C6)[O]C(=O)C5)CC1)C(=O)O)C(=O)O (stereo partly drawn) [Example 17-B-232Th] | – | – | – | 46 | 10
NC[C@H]1CC[C@H](C(=O)N[C@@H](Cc2ccc(C3CCC3)cc2)C(=O)NCCCC[C@H](NC(=O)N[C@@H](CCC(=O)O)C(=O)O)C(=O)O)CC1 [Example 18-A, N^6—{N-[(1r,4S)-4-(aminomethyl)cyclohexane-1-carbonyl]-4-cyclobutyl-L-phenylalanyl}-N^2-{[(1S)-1,3-dicarboxypropyl]carbamoyl}-L-lysine] | 78 | 79 | – | – | –
COc1ccc(CC(NC(=O)[C@H]2CC[C@H](CN)CC2)C(=O)NCCCC[C@H](NC(=O)N[C@@H](CCC(=O)O)C(=O)O)C(=O)O)cc1OC (stereo partly drawn) [Example 19-A, N^6—{N-[(1r,4S)-4-(aminomethyl)cyclohexane-1-carbonyl]-3-methoxy-O-methyl-L-tyrosyl}-N^2-{[(1S)-1,3-dicarboxypropyl]carbamoyl}-L-lysine] | 84 | 79 | – | – | –
NC[C@H]1CC[C@H](C(=O)N[C@@H](CCCNC(=O)c2cnccn2)C(=O)NCCCC[C@H](NC(=O)N[C@@H](CCC(=O)O)C(=O)O)C(=O)O)CC1 [Example 20-A, N^6—{N^2-[(1r,4S)-4-(aminomethyl)cyclohexane-1-carbonyl]-N^5-(pyrazine-2-carbonyl)-L-ornithyl}-N^2-{[(1S)-1,3-dicarboxypropyl]carbamoyl}-L-lysine] | 88 | 82 | – | – | –
NC[C@H]1CC[C@H](C(=O)N(Cc2cccc(=O)[nH]2)[C@@H](Cc2ccc3ccccc3c2)C(=O)NCCCC[C@H](NC(=O)N[C@@H](CCC(=O)O)C(=O)O)C(=O)O)CC1 [Example 21-A, (3S,10S,14S)-1-[(1r,4S)-4-(aminomethyl)cyclohexyl]-3-[(naphthalen-2-yl)methyl]-1,4,12-trioxo-2-[(6-oxo-1,6-dihydropyridin-2-yl)methyl]-2,5,11,13-tetraazahexadecane-10,14,16-tricarboxylic acid] | 70 | 58 | – | – | –
NC[C@H]1CC[C@H](C(=O)N[C@@H](Cc2cnc3ccccc3c2)C(=O)NCCCC[C@H](NC(=O)N[C@@H](CCC(=O)O)C(=O)O)C(=O)O)CC1 [Example 22-A, N^6—{N-[(1r,4S)-4-(aminomethyl)cyclohexane-1-carbonyl]-3-(quinolin-3-yl)-L-alanyl}-N^2-{[(1S)-1,3-dicarboxypropyl]carbamoyl}-L-lysine] | 113 | 40 | – | – | –
Nc1ccc(CC(=O)N[C@@H](Cc2ccc3ccccc3c2)C(=O)NCCCC[C@H](NC(=O)N[C@@H](CCC(=O)O)C(=O)O)C(=O)O)cc1 [Example 23-A, (4S,11S,15S)-1-(4-aminophenyl)-4-[(naphthalen-2-yl)methyl]-2,5,13-trioxo-3,6,12,14-tetraazaheptadecane-11,15,17-tricarboxylic acid] | 59 | 26 | – | – | –
O=C(O)CC[C@H](NC(=O)N[C@@H](CCCCNC(=O)[C@H](Cc1ccc2ccccc2c1)NC(=O)Cc1ccc(NC(=O)CN2CCN(CC(=O)O)CCN(CC(=O)O)CCN(CC(=O)O)CC2)cc1)C(=O)O)C(=O)O [Example 23-B, (4S,11S,15S)-4-[(naphthalen-2-yl)methyl]-2,5,13-trioxo-1-(4-{2-[4,7,10-tris(carboxymethyl)-1,4,7,10-tetraazacyclododecan-1-yl]acetamido}phenyl)-3,6,12,14-tetraazaheptadecane-11,15,17-tricarboxylic acid] | 66 | 18 | – | – | –
NCc1ccc(C(=O)N[C@@H](Cc2ccc3ccccc3c2)C(=O)NCCCC[C@H](NC(=O)N[C@@H](CCC(=O)O)C(=O)O)C(=O)O)cc1 [Example 24-A, (3S,10S,14S)-1-[4-(aminomethyl)phenyl]-3-[(naphthalen-2-yl)methyl]-1,4,12-trioxo-2,5,11,13-tetraazahexadecane-10,14,16-tricarboxylic acid] | 66 | 16 | – | – | –
O=C(O)CC[C@H](NC(=O)N[C@@H](CCCCNC(=O)[C@H](Cc1ccc2ccccc2c1)NC(=O)c1ccc(CNC(=O)CN2CCN(CC(=O)O)CCN(CC(=O)O)CCN(CC(=O)O)CC2)cc1)C(=O)O)C(=O)O [Example 24-B, (3S,10S,14S)-3-[(naphthalen-2-yl)methyl]-1,4,12-trioxo-1-[4-({2-[4,7,10-tris(carboxymethyl)-1,4,7,10-tetraazacyclododecan-1-yl]acetamido}methyl)phenyl]-2,5,11,13-tetraazahexadecane-10,14,16-tricarboxylic acid] | 59 | 6 | – | – | –
